Experimental data: patent US12194027B2, “Small molecule inhibitors of GPCR GPR68 and related receptors for treating cancer, glioblastoma, and other indications” (UNIVERSITY OF MARYLAND, BALTIMORE, priority 2019, dated 2025)

Target: Lpa1 (Homo sapiens (Human), UniProt Q92633)
Assay: Lpa1 activity of OGM analogs (Table 5)
Format: cell-based
Conditions: not given

Lpa1, sequence (Q92633 whole entry, species assumed): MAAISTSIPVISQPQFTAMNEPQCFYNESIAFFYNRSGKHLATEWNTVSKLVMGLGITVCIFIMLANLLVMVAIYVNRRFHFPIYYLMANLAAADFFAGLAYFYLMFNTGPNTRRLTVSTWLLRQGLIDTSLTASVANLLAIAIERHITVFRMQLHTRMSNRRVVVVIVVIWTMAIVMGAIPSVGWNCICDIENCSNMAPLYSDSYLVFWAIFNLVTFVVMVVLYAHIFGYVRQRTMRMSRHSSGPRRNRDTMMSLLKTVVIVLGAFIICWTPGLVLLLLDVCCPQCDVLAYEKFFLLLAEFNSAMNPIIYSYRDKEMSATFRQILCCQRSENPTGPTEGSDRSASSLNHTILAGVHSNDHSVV

Row | IC50 [µM] | SMILES
1 | 1.4 | CCc1ccc2c(c1)C1(NN=C(c3ccccc3O)S1)C(=O)N2 (centres unmarked) [OGM4]
2 | 6.4 | Cc1ccc2c(c1)C1(NN=C(c3ccccc3)S1)C(=O)N2 (centres unmarked) [OGM3]

Row | SMILES | IC50 [µM]
3 | Cc1noc(-c2ccc(CSCCC(=O)O)cc2)c1NC(=O)OC(C)c1ccccc1Cl (centres unmarked) [LPAi, reference compound] | 0.25

System: A2058 melanoma cell line
Assay: scratch assay for migration, A2058
Format: cell-based, human
Conditions: OGM 5 μM, EIPA 10 μM, 20 hours
Procedure: (§1) Cells were grown to confluence and the cells were denuded with a P200 tip. A medium change was done to add fresh medium, remove loose cells and add compounds OGM (5 μM) and EIPA (10 μM). The area of the scratch was observed 20 hours later.
(§2) Since there are numerous parallels are found between neural crest cells and cancer during migration, we examined whether OGM could inhibit the migration of cells in human melanoma cell lines (Oppitz et al., 2007; Schriek et al., 2005; Sinnberg et al., 2018). […] A2058, MeWo and WM115 cells were grown to confluence and a stripe of cells were denuded with a p200 pipette tip “scratch” and rinsed with PBS. Cells were treated with OGM or EIPA, or DMSO and incubated in low serum media. Imaging was done at 30 minutes after “scratch” and then 20 hours afterwards. Areas were then measured and normalized to the initial area.
(§3) Previous studies with the MV3 melanoma cell line have shown that disruption of proton efflux with EIPA inhibition of NHE1 can also reduce melanoma motility (Ludwig et al., 2013; Schneider et al., 2009; Stock et al., 2007, 2005; Stüwe et al., 2007). […] Although the expression of GPR68 and other proton-sensing receptors have been characterized in various skin cancers (Merkel cell carcinoma, dermatofibrosarcoma protuberans, atypical fibroxanthoma, and pleomorphic dermal sarcoma), expression in melanoma cell lines has not investigated (Nassios et al., 2019).

Row | SMILES | migration in scratch assay
4 | CCN(c1nc(N)c(C(=O)NC(=N)N)nc1Cl)C(C)C [EIPA, reference compound] | inhibited migration

System: U87glioblastoma cells
Assay: 3D tumoroid growth over time with GPR68 modulators
Format: cell-based
Conditions: 10 μM/20 μM, imaged every 12 hours
Procedure: A GPR68-positive allosteric modulator, Ogerin, was tested. U87glioblastoma cells were plated in low attachment round bottom 96-well plates and allowed to form tumor spheroids for 3 days (T0). These spheroids were treated with Vehicle (DMSO), 10 μM/20 μM Ogerin or 10 μM/20 μM Ogremorphin (OGM2). The spheroids were placed in the Lionheart™ HCS equipped with environmental control (5% CO2 at 37° C.) and imaged every 12 hours.

Row | SMILES | growth in 3D tumoroid culture
5 | Nc1nc(NCc2ccccc2)nc(-c2ccccc2CO)n1 [Ogerin] | Stimulates Growth

Target: GPR68/OGR1 (Homo sapiens (Human), UniProt Q15743)
Assay: inhibition of GPR68/OGR1 in CHEM1-OGR1 cells, Fluo-8 calcium response to acidified media
Format: cell-based
Conditions: acidified media pH 6.4, Fluo-8
Procedure: Briefly, the methods were: On the day before the assay 20,000 cells per well of CHEM1-OGR1 cells were plated in 10% DMEM containing 10% FBS and 1% Pen/Strep into a 96 well plate. After 24 hours media was removed and cells were stained with 80 uL Fluo-8 calcium indicator dye according to manufacturer's protocol. After staining cells were treated with 20 uL of 4× concentration of test compounds. Using kinetic imaging in the Lionheart HCS fluorescence intensity was continuously measure at 10 frames per second, for 5 seconds before 100 μL of acidified media was added to the well resulting in a pH of 6.4. A ratio of fluorescence intensities prior to addition and at peak were calculated and averaged. The resulting data were platted and using a 4 parameter logistic regression EC50 for each test compound was determined.

GPR68/OGR1, sequence (Q15743 whole entry): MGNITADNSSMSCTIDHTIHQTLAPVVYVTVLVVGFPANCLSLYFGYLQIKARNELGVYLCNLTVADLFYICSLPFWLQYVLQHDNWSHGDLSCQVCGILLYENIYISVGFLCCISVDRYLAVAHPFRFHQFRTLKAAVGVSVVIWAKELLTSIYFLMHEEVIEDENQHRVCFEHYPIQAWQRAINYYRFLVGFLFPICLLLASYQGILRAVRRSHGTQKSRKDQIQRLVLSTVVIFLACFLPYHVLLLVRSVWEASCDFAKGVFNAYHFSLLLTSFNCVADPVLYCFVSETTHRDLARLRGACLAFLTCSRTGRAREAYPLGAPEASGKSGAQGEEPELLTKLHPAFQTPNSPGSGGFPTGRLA

Row | SMILES | EC50 [µM]
6 | CCc1ccc2c(c1)C1(NN=C(c3cccc4ccccc34)S1)C(=O)N2 (centres unmarked) [OGM1] | 0.17
7 | COc1ccc(C2=NNC3(S2)C(=O)Nc2ccc(OC)cc23)cc1 (centres unmarked) [OGM17] | 0.9
8 | O=C1Nc2ccc(Cl)cc2C12NN=C(c1ccccc1)S2 (centres unmarked) [OGM7] | 1.62
9 | O=C1Nc2ccccc2C12NN=C(c1ccc(Cl)cc1)S2 (centres unmarked) [OGM13] | < 0.4
10 | CCc1ccc2c(c1)C1(NN=C(c3cccnc3)S1)C(=O)N2 (centres unmarked) [OGM48] | > 10
11 | O=C1Nc2ccc(Cl)cc2C12NN=C(c1ccc(Cl)cc1)S2 (centres unmarked) [OGM19] | < 0.4
12 | COc1ccc2c(c1)C1(NN=C(c3cccnc3)S1)C(=O)N2 (centres unmarked) [OGM50] | 1.86
13 | COc1ccc2c(c1)C1(NN=C(c3ccc(Cl)cc3)S1)C(=O)N2 (centres unmarked) [OGM22] | < 0.4
14 | Cc1ccc(C2=NNC3(S2)C(=O)Nc2ccc(F)cc23)cc1 (centres unmarked) [OGM18] | 0.985
15 | O=C1Nc2ccc(Cl)cc2C12NN=C(c1cccc3ccccc13)S2 (centres unmarked) [OGM23] | 5.04
16 | O=C1Nc2ccc(Cl)cc2C12NN=C(c1ccc(F)cc1)S2 (centres unmarked) [OGM21] | 0.796

Continued, values first:

Row | EC50 [µM] | SMILES
17 | > 10 | CCc1ccc2c(c1)C1(NN=C(c3ccc4cc(OC)ccc4c3)S1)C(=O)N2 (centres unmarked) [OGM27]
18 | 1.09 | CCc1ccc2c(c1)C1(NN=C(c3ccnc(OC)c3)S1)C(=O)N2 (centres unmarked) [OGM49, 5-ethyl-5′-(2-methoxypyridin-4-yl)-1,2-dihydro-3′H-spiro[indole-3,2′-[1,3,4]thiadiazol]-2-one: 2,2,2-trifluoroacetic Acid]
19 | 2.92 | COC(=O)c1ccc2c(c1)C1(NN=C(c3cccc4cccnc34)S1)C(=O)N2 (centres unmarked) [OGM44]
20 | > 10 | CCc1ccc2c(c1)C1(NN=C(c3ccc(OC)cc3)S1)C(=O)N2 (centres unmarked) [OGM28]
21 | 0.822 | NS(=O)(=O)c1ccc2c(c1)C1(NN=C(c3ccccc3)S1)C(=O)N2 (centres unmarked) [OGM52]
22 | > 10 | COc1ccc2cc(C3=NNC4(S3)C(=O)N(CC=C(C)C)c3ccc(Cl)cc34)ccc2c1 (centres unmarked) [OGM35]
23 | > 10 | COC(=O)c1ccc2c(c1)C1(NN=C(c3cccnc3)S1)C(=O)N2 (centres unmarked) [OGM47]
24 | < 0.4 | CCc1ccc2c(c1)C1(NN=C(c3cccc4cccnc34)S1)C(=O)N2 (centres unmarked) [OGM58]
25 | 1.44 | COc1ccc2c(c1)NC(=O)C21NN=C(c2ccnc(OC)c2)S1 (centres unmarked) [OGM51]
26 | 3.69 | COc1ccc2c(c1)C1(NN=C(c3cccc4cccnc34)S1)C(=O)N2 (centres unmarked) [OGM38]
27 | > 10 | COc1ccc(C2=NNC3(S2)C(=O)N(CC=C(C)C)c2ccccc23)cc1 (centres unmarked) [OGM30]
28 | > 10 | CC(C)=CCN1C(=O)C2(NN=C(c3cccc4ccccc34)S2)c2cc(Cl)ccc21 (centres unmarked) [OGM32]
29 | 45.9 | COc1ccc2cc(C3=NNC4(S3)C(=O)Nc3ccc(Cl)cc34)ccc2c1 (centres unmarked) [OGM24]
30 | > 10 | CC(C)=CCN1C(=O)C2(NN=C(c3cccc4ccccc34)S2)c2ccccc21 (centres unmarked) [OGM33]
31 | > 10 | COc1ccc2c(c1)C1(NN=C(c3ccc4ncccc4c3)S1)C(=O)N2 (centres unmarked) [OGM43]
32 | 0.708 | COc1ccc2cc(C3=NNC4(S3)C(=O)Nc3ccc(F)cc34)ccc2c1 (centres unmarked) [OGM26]
33 | 10 | O=C1Nc2ccc(F)cc2C12NN=C(c1ccc3ncccc3c1)S2 (centres unmarked) [OGM45, 5-fluoro-5′-(quinolin-6-yl)-1,2-dihydro-3′H-spiro[indole-3,2′-[1,3,4]thiadiazol]-2-one]
34 | 0.805 | COc1cc(C2=NNC3(S2)C(=O)Nc2ccc(F)cc23)ccn1 (centres unmarked) [OGM57]
35 | > 10 | COc1ccc(C2=NNC3(S2)C(=O)N(CC=C(C)C)c2ccc(Cl)cc23)cc1 (centres unmarked) [OGM29]
36 | < 0.4 | CCc1ccc2c(c1)C1(NN=C(c3ccncc3)S1)C(=O)N2 (centres unmarked) [OGM60]
37 | 0.9 | NS(=O)(=O)c1ccc2c(c1)C1(NN=C(c3cccnc3)S1)C(=O)N2 (centres unmarked) [OGM53]
38 | > 10 | COc1ccc2cc(C3=NNC4(S3)C(=O)N(CC=C(C)C)c3ccccc34)ccc2c1 (centres unmarked) [OGM34]

System: MeWo melanoma cell line
Assay: scratch assay for migration, MeWo
Format: cell-based, human
Conditions: OGM 5 μM, EIPA 10 μM, 20 hours
Procedure: as §1, §2, §3

Row | SMILES | migration in scratch assay
39 | CCN(c1nc(N)c(C(=O)NC(=N)N)nc1Cl)C(C)C [EIPA, reference compound] | refractory to the inhibition

System: WM115 melanoma cell line
Assay: scratch assay for migration, WM115
Format: cell-based, human
Conditions: OGM 5 μM, EIPA 10 μM, 20 hours
Procedure: as §1, §2, §3

Row | SMILES | migration in scratch assay
40 | CCN(c1nc(N)c(C(=O)NC(=N)N)nc1Cl)C(C)C [EIPA, reference compound] | inhibited migration

Target: GPR68 (Homo sapiens (Human), UniProt Q15743)
Assay: GPR68 inhibitory activity of OGM analogs (Table 5)
Format: cell-based
Conditions: not given
Procedure: GPCR profiling assays were performed by Millipore (St. Louis, MO) using in cells expressing Gα15, a promiscuous G protein that enhances GPCR coupling to downstream Ca2+ signaling pathways.
Since GPCRs represent >30% of targets for FDA-approved small molecules and are known to modulate cell migration, activity against 158 GPCRs was assessed based on their chemical structures. GPCRs (158) were tested for agonist and antagonist activity at 10 μM. […] Chemical segregation analysis of zebrafish phenotype was conducted to further identify the inhibitory activity responsible for the zebrafish phenotype. […] The identities of the R groups in FIG. 2B are shown below in Table 5.
Chem1-GPR68 reporter cells were treated with 20 uM OM8345 for 2 hours and then rinsed with HBSS. […] The GPR68 inhibitory activity of OGM analogs segregated with the ability of the molecule to induce the phenotype in zebrafish. Neural crest progenitors labeled with In situ hybridization of FoxD3 show normal formation of the progenitor pool.

GPR68, sequence (Q15743 whole entry, looked up): as the sequence (Q15743 whole entry) above

Row | IC50 [µM] | SMILES
41 | 3.4 | CCc1ccc2c(c1)C1(NN=C(c3ccccc3O)S1)C(=O)N2 (centres unmarked) [OGM4]
42 | 0.16 | CCc1ccc2c(c1)C1(NN=C(c3cccc4ccccc34)S1)C(=O)N2 (centres unmarked) [OGM1]
43 | 1.5 | CN1C(=O)C2(NN=C(c3cccc4ccccc34)S2)c2ccccc21 (centres unmarked) [OGM6]
44 | 0.76 | Cc1ccc2c(c1)C1(NN=C(c3ccccc3)S1)C(=O)N2 (centres unmarked) [OGM3]
45 | 0.81 | CN1C(=O)C2(NN=C(c3ccccc3)S2)c2ccccc21 (centres unmarked) [OGM5]

System: zebrafish embryo
Assay: zebrafish embryo phenotype (pigmentation, morphology)
Format: in vivo
Conditions: concentrations up to 200× the IC50

Row | SMILES | zebrafish phenotype
46 | Cc1noc(-c2ccc(CSCCC(=O)O)cc2)c1NC(=O)OC(C)c1ccccc1Cl (centres unmarked) [LPAi, reference compound] | failed to induce a noticeable phenotype
47 | COc1cc(Br)c(S(=O)(=O)Nc2ccc(Cl)c(O[C@@H]3CCN(C)C3)c2)cc1OC [UT2i, reference compound] | failed to induce a noticeable phenotype
